Read-outs that look alike come from different tables or passages of the source.

Results on 5 molecules are retold here after patent US5646000A, “Compounds and methods for identifying activated platelets” (Merck & Co., Inc., priority 1994, dated 1997).

One assay concerns ADP-stimulated platelets. The assay is described as follows: Fibrinogen Receptor Antagonist Assay: ADP-stimulated platelet aggregation (gel-filtered human platelets). The format is cell-based. Conditions: gel-filtered human platelets 2×10^8 per ml, fibrinogen 100 μg/ml, Ca^2+ 1 mM, 10 μM ADP, 37° C. The protocol: The fibrinogen receptor antagonist activity is based on evaluation of inhibition of ADP-stimulated platelets. Aggregation requires that fibrinogen bind to and occupy the fibrinogen receptor site. Inhibitors of fibrinogen binding inhibit aggregation.
Platelet aggregation was measured at 37° C. in a Chronolog aggregometer. The reaction mixture contained gel-filtered human platelets (2×10^8 per ml), fibrinogen (100 μg/ml), Ca^2+ (1 mM), and the compound to be tested. The aggregation was initiated by adding 10 μM ADP after the other components had been added. The reaction was allowed to proceed for at least 2 minutes.

Assay [1] concerns the target inactive form of GP IIb/IIIa (unactivated GP IIb/IIIa) (Homo sapiens, UniProt P05106+P08514). Kind of assay: Fluorescence displacement of probe 2-8 from inactive (unactivated) form of GP IIb/IIIa. The format is binding.
Assay [2] concerns the target active form of GP IIb/IIIa (Homo sapiens, UniProt P05106+P08514). Kind of assay: Fluorescence displacement of probe 2-8 from active form of purified GP IIb/IIIa. Format: binding. On the procedure:
The purified glycoprotein IIb/IIIa (final concentration 0.64 μM, active form which binds to RGDS affinity column) was mixed with fluorescent antagonist 2-8 (final concentration 1 μM) in a fluorescence cell and fluorescence recorded (excitation wavelength 340 nm, emission range 360-600 nm).

[3] abbreviates: unactivated GP IIb/IIIa (Table 1), read-out: Ki (nM) (unactivated GP IIb/IIIa).

Sequence of inactive form of GP IIb/IIIa (unactivated GP IIb/IIIa) (P08514 32-887 limits assumed): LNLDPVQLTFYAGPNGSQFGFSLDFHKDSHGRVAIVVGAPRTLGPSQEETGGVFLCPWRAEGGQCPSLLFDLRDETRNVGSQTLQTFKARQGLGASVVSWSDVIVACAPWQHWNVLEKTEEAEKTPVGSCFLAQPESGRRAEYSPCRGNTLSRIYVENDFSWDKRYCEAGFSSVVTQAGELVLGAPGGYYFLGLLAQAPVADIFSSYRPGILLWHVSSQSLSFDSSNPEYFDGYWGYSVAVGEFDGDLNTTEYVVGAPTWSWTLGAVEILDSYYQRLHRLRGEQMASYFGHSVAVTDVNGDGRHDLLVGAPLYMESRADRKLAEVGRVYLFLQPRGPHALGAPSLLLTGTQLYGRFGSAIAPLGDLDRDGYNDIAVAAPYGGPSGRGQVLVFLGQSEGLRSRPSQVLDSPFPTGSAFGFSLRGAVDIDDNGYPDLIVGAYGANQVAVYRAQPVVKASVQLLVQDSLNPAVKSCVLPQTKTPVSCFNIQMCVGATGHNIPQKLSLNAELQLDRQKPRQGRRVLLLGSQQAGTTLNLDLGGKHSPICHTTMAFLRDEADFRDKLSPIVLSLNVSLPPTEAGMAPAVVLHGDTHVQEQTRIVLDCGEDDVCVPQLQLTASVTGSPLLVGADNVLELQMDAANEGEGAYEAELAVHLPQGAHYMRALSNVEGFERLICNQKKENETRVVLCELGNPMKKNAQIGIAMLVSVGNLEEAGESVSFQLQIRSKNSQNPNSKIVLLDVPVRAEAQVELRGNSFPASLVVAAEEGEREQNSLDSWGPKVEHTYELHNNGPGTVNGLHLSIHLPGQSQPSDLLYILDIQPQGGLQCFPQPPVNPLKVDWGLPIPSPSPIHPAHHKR
Sequence of inactive form of GP IIb/IIIa (unactivated GP IIb/IIIa) (P08514 891-1039 partner limits assumed): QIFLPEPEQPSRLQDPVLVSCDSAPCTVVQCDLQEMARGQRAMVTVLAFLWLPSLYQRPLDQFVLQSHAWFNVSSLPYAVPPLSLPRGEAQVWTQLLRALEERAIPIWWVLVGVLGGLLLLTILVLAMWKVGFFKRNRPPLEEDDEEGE
Sequence of inactive form of GP IIb/IIIa (unactivated GP IIb/IIIa) (P05106 27-788): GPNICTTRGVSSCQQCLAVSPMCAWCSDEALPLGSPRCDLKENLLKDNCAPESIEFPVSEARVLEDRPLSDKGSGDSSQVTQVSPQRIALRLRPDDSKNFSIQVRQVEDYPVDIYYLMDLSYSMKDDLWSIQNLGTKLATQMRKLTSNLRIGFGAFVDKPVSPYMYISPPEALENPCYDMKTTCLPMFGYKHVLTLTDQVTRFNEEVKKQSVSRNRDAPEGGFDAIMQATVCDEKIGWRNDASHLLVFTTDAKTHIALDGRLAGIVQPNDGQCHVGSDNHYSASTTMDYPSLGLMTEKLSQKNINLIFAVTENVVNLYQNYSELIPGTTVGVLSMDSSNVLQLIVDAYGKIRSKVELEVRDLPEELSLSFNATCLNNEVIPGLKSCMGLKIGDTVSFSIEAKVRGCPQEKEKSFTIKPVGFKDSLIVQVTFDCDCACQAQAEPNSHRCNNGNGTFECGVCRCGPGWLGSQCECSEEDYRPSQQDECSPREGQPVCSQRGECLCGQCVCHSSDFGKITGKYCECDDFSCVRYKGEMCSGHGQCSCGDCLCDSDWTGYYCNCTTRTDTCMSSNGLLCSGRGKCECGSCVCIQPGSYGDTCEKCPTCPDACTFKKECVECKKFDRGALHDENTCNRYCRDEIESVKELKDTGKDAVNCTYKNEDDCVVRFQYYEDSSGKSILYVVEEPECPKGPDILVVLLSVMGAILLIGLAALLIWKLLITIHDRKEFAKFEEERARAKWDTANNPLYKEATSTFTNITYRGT
Sequence of active form of GP IIb/IIIa (P08514 32-887 limits assumed): as the sequence (P08514 32-887 limits assumed) above
Sequence of active form of GP IIb/IIIa (P08514 891-1039 partner limits assumed): as the sequence (P08514 891-1039 partner limits assumed) above
Sequence of active form of GP IIb/IIIa (P05106 27-788): as the sequence (P05106 27-788) above

Usually IC50 stands for the concentration at which inhibition is half-maximal. Low readings indicate higher potency, high ones lower potency. For `O=C(NC[C@H](NS(=O)(=O)c1cccnc1)C(=O)O)c1cc2cc(CCC3CCNCC3)sc2s1` [Compound E, 5-[2-(Piperidin-4-yl)ethyl]thieno[2,3-b]thiophene-2-N-[3-2(S)-(3-pyridylsulfonylamino)propionic acid] carboxamide], in the assay with ADP-stimulated platelets, the half-inhibitory concentration (IC50) was 8 nM. In addition, in assay [1] (setting [3]), the Ki was not above 2.7 nM.
For `O=C(O)CCNC(=O)c1ccc2c(c1)C(=O)N(CCC1CCNCC1)C2` [Compound A, 2,3-Dihydro-N-(2-carboxyethyl)-2-[2-(4-piperidinyl)ethyl]-3-oxo-1-H-isoindole-5-carboxamide], in that order: 27 nM and 99 nM.
For `CCCCS(=O)(=O)N[C@@H](CNC(=O)c1ccc2c(c1)C(=O)N(CCC1CCNCC1)C2)C(=O)O` [Compound D, 1-H-isoindole-5-carboxamide, 2,3 dihydro-N-[3-(2(S)-n-butylsulfonylamino)propionic acid]-2-[2-(4-piperidinyl)ethyl]-3-oxo], in that order: 21 nM and 2.4 nM.
For the molecule `O=C(O)C[C@@H](CCc1c[nH]c2ccccc12)NC(=O)CNC(=O)CCCC1CCNCC1` [Compound B, Pib-Gly-3(R)-[2(indol-3-yl)ethyl]β-alanine hydrogen chloride], half-maximal inhibition in the assay with ADP-stimulated platelets (IC50) was put at 94 nM. In addition, the Ki was 4 nM in assay [2] (GP IIb/IIIa 0.64 μM, probe 2-8 1 μM, excitation 340 nm, change in fluorescence at 550 nm, read-out: Ki for nonfluorescent antagonist toward the active form of GP IIb/IIIa) and 470 nM in assay [1] (inactive form, does not bind to RGDS affinity column, displacement of 2-8, read-out: Ki on inactive form of GP IIb/IIIa).
Regarding `CN(C)c1cccc2c(S(=O)(=O)N[C@@H](CNC(=O)c3ccc4c(c3)C(=O)N(CCC3CCNCC3)C4)C(=O)O)cccc12` [Compound 2-8, 1H-Isoindole-5-carboxamide, 2,3-dihydro-N-[2(S)-dansylamino-3-aminopropionic acid]-2-[2-(4-piperidinyl)ethyl]-3-oxo], the Ki in assay [2] (active form of GP IIb/IIIa, binds to RGDS affinity column, read-out: Ki of fluorescence antagonist 2-8 (used for the calculation)) is 3.7 nM.
